Read-outs that look alike come from different tables or passages of the source.
Assays:
Assay in all cases: cell-based
hNav1.7 = hNav1.7 (Homo sapiens, UniProt Q15858); assay type: cell-based; conditions: PatchXpress, tonic block; read-out: PX hNav1.7 Tonic IC50
hNav1.4 [1] = target: T1, hNav1.4 (Homo sapiens, UniProt P35499); conditions: for IC50: PatchXpress, read-out: PX hNav1.4 Tonic IC50
hNav1.5 = hNav1.5 (Homo sapiens, UniProt Q14524); conditions: for IC50: PatchXpress, read-out: PX hNav1.5 Tonic IC50
hNav1.4 [2] = target: T1, hNav1.4; conditions: ratio of IonWorks Quattro IC50 values
[3] = * = at high concentrations compound would wash off slowly or not at all

Sequence of hNav1.7 (Q15858 whole entry): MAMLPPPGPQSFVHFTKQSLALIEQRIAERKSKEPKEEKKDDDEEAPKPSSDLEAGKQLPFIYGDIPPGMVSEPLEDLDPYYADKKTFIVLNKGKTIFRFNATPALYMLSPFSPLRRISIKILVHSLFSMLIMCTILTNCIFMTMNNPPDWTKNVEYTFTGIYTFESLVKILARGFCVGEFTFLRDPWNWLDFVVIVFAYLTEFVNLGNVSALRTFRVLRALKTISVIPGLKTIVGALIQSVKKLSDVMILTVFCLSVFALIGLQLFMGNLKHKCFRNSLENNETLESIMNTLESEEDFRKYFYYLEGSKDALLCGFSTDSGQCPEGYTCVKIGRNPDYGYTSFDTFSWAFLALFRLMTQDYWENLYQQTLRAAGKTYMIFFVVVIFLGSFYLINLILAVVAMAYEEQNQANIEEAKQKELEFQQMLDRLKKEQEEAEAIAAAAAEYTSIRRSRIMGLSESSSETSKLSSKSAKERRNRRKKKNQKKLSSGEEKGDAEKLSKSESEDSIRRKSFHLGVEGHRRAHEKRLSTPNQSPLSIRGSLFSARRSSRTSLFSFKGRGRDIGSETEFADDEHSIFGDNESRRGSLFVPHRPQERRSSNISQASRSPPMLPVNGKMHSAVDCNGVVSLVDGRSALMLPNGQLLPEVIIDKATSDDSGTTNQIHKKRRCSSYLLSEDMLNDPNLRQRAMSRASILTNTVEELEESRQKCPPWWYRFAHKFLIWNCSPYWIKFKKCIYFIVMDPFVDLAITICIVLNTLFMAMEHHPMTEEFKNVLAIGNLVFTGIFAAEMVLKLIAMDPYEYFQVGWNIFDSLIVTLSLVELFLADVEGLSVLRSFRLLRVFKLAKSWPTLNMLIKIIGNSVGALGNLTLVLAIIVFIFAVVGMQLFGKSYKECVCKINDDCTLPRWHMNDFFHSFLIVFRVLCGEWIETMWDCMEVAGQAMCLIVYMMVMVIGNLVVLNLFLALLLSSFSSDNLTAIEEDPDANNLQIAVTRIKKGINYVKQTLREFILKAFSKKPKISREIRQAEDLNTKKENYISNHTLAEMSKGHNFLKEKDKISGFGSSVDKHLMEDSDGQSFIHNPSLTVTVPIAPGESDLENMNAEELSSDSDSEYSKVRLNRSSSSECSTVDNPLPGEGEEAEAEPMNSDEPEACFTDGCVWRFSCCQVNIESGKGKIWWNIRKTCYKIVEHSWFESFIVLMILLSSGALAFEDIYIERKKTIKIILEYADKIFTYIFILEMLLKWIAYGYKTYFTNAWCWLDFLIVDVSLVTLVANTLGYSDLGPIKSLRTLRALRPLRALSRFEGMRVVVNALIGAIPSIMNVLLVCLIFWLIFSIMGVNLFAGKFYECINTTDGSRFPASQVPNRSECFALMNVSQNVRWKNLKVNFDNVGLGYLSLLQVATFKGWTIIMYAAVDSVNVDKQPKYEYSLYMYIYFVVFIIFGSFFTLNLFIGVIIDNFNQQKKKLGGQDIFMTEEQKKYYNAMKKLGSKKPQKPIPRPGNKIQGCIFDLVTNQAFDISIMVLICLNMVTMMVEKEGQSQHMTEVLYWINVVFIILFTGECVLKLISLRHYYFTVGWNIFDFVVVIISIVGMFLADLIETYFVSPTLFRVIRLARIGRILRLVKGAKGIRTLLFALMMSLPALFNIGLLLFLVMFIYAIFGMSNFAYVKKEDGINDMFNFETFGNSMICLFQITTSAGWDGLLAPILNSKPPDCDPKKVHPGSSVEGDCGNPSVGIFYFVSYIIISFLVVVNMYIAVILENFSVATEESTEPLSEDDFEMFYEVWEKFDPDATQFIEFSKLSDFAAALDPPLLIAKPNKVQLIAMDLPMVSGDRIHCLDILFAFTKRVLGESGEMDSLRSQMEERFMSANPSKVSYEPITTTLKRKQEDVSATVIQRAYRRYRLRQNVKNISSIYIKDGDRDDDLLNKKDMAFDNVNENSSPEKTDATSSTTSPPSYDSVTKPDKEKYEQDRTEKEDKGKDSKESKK
T1 sequence (P35499 whole entry): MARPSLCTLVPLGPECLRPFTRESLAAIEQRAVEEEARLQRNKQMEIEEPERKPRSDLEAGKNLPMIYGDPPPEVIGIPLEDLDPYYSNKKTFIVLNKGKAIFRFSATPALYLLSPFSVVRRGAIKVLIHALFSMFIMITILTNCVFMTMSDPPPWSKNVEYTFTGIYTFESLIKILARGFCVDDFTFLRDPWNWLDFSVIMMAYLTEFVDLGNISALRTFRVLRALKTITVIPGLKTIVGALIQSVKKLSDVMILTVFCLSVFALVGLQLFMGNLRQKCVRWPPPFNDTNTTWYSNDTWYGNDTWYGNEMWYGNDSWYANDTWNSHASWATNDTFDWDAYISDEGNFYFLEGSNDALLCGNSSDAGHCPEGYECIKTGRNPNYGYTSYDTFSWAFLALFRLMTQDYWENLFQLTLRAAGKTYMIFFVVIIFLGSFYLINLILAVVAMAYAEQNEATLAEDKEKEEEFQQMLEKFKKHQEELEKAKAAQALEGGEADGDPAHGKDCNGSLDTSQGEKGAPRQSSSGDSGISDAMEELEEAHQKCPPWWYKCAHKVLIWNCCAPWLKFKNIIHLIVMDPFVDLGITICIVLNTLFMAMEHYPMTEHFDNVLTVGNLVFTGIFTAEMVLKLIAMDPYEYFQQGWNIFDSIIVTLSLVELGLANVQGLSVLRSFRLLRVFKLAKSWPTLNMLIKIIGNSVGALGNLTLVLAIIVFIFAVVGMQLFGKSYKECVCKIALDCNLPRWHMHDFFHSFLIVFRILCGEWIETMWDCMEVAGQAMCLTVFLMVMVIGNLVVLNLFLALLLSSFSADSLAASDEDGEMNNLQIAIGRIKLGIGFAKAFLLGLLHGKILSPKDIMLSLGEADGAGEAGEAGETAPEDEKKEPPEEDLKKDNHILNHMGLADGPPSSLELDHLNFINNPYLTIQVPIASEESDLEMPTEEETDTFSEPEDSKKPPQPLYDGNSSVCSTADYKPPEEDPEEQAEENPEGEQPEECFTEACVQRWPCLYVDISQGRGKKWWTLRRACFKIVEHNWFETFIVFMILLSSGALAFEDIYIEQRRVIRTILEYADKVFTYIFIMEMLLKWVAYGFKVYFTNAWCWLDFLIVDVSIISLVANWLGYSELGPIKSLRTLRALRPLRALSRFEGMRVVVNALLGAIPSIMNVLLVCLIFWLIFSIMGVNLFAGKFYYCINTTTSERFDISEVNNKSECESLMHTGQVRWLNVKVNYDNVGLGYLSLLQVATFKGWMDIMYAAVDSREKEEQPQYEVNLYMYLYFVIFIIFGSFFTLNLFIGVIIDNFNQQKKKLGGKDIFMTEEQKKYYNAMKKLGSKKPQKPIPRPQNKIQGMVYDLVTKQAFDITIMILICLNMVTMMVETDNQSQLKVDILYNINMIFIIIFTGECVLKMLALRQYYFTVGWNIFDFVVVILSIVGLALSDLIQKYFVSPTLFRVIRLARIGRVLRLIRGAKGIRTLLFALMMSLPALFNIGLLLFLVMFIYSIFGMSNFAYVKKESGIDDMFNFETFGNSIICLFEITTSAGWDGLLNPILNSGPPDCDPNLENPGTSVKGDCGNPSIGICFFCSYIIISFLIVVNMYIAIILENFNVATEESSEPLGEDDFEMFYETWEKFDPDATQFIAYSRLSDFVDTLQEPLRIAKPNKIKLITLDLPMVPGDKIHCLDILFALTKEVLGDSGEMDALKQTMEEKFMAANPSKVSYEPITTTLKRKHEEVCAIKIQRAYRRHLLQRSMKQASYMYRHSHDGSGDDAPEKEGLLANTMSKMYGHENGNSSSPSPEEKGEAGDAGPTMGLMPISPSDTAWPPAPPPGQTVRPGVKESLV

Compound	IC50 (hNav1.7) [nM]	IC50 (hNav1.4 [1]; tonic block) [nM]	IC50 (hNav1.5; tonic block) [nM]	Nav1.4/Nav1.7 (hNav1.4 [1]; ratio of PX IC50 values)	other results
C#CC[C@@H]1NC(=O)[C@H](CCCNC(=N)N)NC(=O)[C@H](CCCCN)NC(=O)[C@H](CO)NC(=O)[C@H](CC(=O)O)NC(=O)[C@@H]2CSSC[C@@H]3NC(=O)[C@H](CCCNC(=N)N)NC(=O)[C@H](CC(C)C)NC(=O)CNC(=O)[C@H](CCC(=O)O)NC(=O)[C@H](CSSC[C@H](NC(=O)[C@@H](N)Cc4ccc(O)cc4)C(=O)N[C@@H](CCC(N)=O)C(=O)N[C@@H](CCCCN)C(=O)N[C@@H](Cc4c[nH]c5ccccc45)C(=O)N[C@@H](CCCC)C(=O)N[C@@H](Cc4c[nH]c5ccccc45)C(=O)N[C@@H]([C@@H](C)O)C(=O)N2)NC(=O)[C@H](CSSC[C@@H](C(=O)N[C@@H](CCCNC(=N)N)C(=O)N[C@@H](CCCCN)C(=O)N[C@@H](CCC(=O)O)C(=O)N[C@H](C(N)=O)[C@@H](C)CC)NC(=O)[C@H](Cc2c[nH]c4ccccc24)NC(=O)[C@H](CC(C)C)NC(=O)[C@H](CCCCN)NC3=O)NC1=O [compound 331]	0.493	105	3510		
C#CC[C@@H]1NC(=O)[C@H](CCCNC(=N)N)NC(=O)[C@H](CCCCN)NC(=O)[C@H](CO)NC(=O)[C@H](CC(=O)O)NC(=O)[C@@H]2CSSC[C@@H]3NC(=O)[C@H](CCC(=O)O)NC(=O)[C@H](CC(C)C)NC(=O)CNC(=O)[C@H](CCC(=O)O)NC(=O)[C@H](CSSC[C@H](NC(=O)[C@@H](N)Cc4ccc(O)cc4)C(=O)N[C@@H](CCC(N)=O)C(=O)N[C@@H](CCCCN)C(=O)N[C@@H](Cc4c[nH]c5ccccc45)C(=O)N[C@@H](CCCC)C(=O)N[C@@H](Cc4c[nH]c5ccccc45)C(=O)N[C@@H]([C@@H](C)O)C(=O)N2)NC(=O)[C@H](CSSC[C@@H](C(=O)N[C@@H](CCCNC(=N)N)C(=O)N[C@@H](CCCCN)C(=O)N[C@H](C(=O)N[C@H](C(N)=O)[C@@H](C)CC)[C@@H](C)CC)NC(=O)[C@H](Cc2c[nH]c4ccccc24)NC(=O)[C@H](CC(C)C)NC(=O)[C@H](CCCCN)NC3=O)NC1=O [compound 345]	7.16	1660	4570		
C#CC[C@@H]1NC(=O)[C@H](CC(=O)O)NC(=O)[C@@H]2CSSC[C@@H]3NC(=O)[C@H](CCC(=O)O)NC(=O)[C@H](CC(C)C)NC(=O)CNC(=O)[C@H](CCC(=O)O)NC(=O)[C@H](CSSC[C@H](NC(=O)[C@@H](N)Cc4ccc(O)cc4)C(=O)N[C@@H](CCC(N)=O)C(=O)N[C@@H](CCCCN)C(=O)N[C@@H](Cc4c[nH]c5ccccc45)C(=O)N[C@@H](CCCC)C(=O)N[C@@H](Cc4c[nH]c5ccccc45)C(=O)N[C@@H]([C@@H](C)O)C(=O)N2)NC(=O)[C@H](CSSC[C@@H](C(=O)N[C@@H](CCCNC(=N)N)C(=O)N[C@@H](CCCCN)C(=O)N[C@@H](Cc2ccc(O)cc2)C(=O)N[C@H](C(N)=O)[C@@H](C)CC)NC(=O)[C@H](Cc2c[nH]c4ccccc24)NC(=O)[C@H](CC(C)C)NC(=O)[C@H](CCCCN)NC3=O)NC(=O)[C@H](C)NC(=O)[C@H](CCCNC(=N)N)NC(=O)[C@H](CCCCN)NC1=O [compound 315]	1.28	825	2460		
CCCC[C@@H]1NC(=O)[C@H](Cc2c[nH]c3ccccc23)NC(=O)[C@H](CCCCN)NC(=O)[C@H](CCC(N)=O)NC(=O)[C@@H](NC(=O)[C@H](Cc2ccc(O)cc2)NC(=O)[C@@H](N)CC(C)C)CSSC[C@@H]2NC(=O)[C@@H]3CSSC[C@@H](C(=O)N[C@@H](CCCNC(=N)N)C(=O)N[C@@H](CCCCN)C(=O)N[C@H](C(=O)N[C@H](C(N)=O)[C@@H](C)CC)[C@@H](C)CC)NC(=O)[C@H](Cc4c[nH]c5ccccc45)NC(=O)[C@H](CC(C)C)NC(=O)[C@H](CCCCN)NC(=O)[C@H](CSSC[C@H](NC(=O)[C@H]([C@@H](C)O)NC(=O)[C@H](Cc4c[nH]c5ccccc45)NC1=O)C(=O)N[C@@H](CC(=O)O)C(=O)N[C@@H](CO)C(=O)N[C@@H](CCCCN)C(=O)N[C@@H](CCCNC(=N)N)C(=O)N[C@@H](C)C(=O)N3)NC(=O)[C@H](CCCNC(=N)N)NC(=O)[C@H](CC(C)C)NC(=O)CNC(=O)[C@H](CCC(=O)O)NC2=O [compound 361]				0	Nav1.5/Nav1.7 (hNav1.5; ratio of PX IC50 values): 0
CCCC[C@@H]1NC(=O)[C@H](Cc2c[nH]c3ccccc23)NC(=O)[C@H](CCCCN)NC(=O)[C@H](CCC(N)=O)NC(=O)[C@@H](NC(=O)[C@@H](N)Cc2ccc(O)cc2)CSSC[C@@H]2NC(=O)[C@@H]3CSSC[C@@H](C(=O)N[C@@H](CCCNC(=N)N)C(=O)N[C@@H](CCCCN)C(=O)N[C@H](C(=O)N[C@H](C(N)=O)[C@@H](C)CC)[C@@H](C)CC)NC(=O)[C@H](Cc4c[nH]c5ccccc45)NC(=O)[C@H](CC(C)C)NC(=O)[C@H](CCCCN)NC(=O)[C@H](CSSC[C@H](NC(=O)[C@H]([C@@H](C)O)NC(=O)[C@H](Cc4c[nH]c5ccccc45)NC1=O)C(=O)N[C@@H](CC(=O)O)C(=O)N[C@@H](Cc1cn(CCCOCCOCCOCCOCCOCCOCCOCCOCCOCCOCCN)nn1)C(=O)N[C@@H](CCCCN)C(=O)N[C@@H](CCCNC(=N)N)C(=O)N[C@@H](C)C(=O)N3)NC(=O)[C@H](CCCNC(=N)N)NC(=O)[C@H](CC(C)C)NC(=O)CNC(=O)[C@H](CCC(=O)O)NC2=O [compound 256]				3	Nav1.4/Nav1.7 (hNav1.4 [2]): 4; Nav1.5/Nav1.7 (hNav1.5; ratio of PX IC50 values): 200
CCCC[C@@H]1NC(=O)[C@H](Cc2c[nH]c3ccccc23)NC(=O)[C@H](CCCCN)NC(=O)[C@H](CCC(N)=O)NC(=O)[C@@H](NC(=O)[C@H](Cc2ccc(O)cc2)NC(=O)[C@H](N)CC(C)C)CSSC[C@@H]2NC(=O)[C@@H]3CSSC[C@@H](C(=O)N[C@@H](CCCNC(=N)N)C(=O)N[C@@H](CCCCN)C(=O)N[C@H](C(=O)N[C@H](C(N)=O)[C@@H](C)CC)[C@@H](C)CC)NC(=O)[C@H](Cc4c[nH]c5ccccc45)NC(=O)[C@H](CC(C)C)NC(=O)[C@H](CCCCN)NC(=O)[C@H](CSSC[C@H](NC(=O)[C@H]([C@@H](C)O)NC(=O)[C@H](Cc4c[nH]c5ccccc45)NC1=O)C(=O)N[C@@H](CC(=O)O)C(=O)N[C@@H](CO)C(=O)N[C@@H](CCCCN)C(=O)N[C@@H](CCCNC(=N)N)C(=O)N[C@@H](C)C(=O)N3)NC(=O)[C@H](CCCNC(=N)N)NC(=O)[C@H](CC(C)C)NC(=O)CNC(=O)[C@H](CCC(=O)O)NC2=O [compound 373]				190	IC50 (hNav1.4 [1]; [3]): 28.7 nM; IC50 (hNav1.5; [3]): 410 nM
CSCC[C@@H]1NC(=O)[C@H](Cc2c[nH]c3ccccc23)NC(=O)[C@H](CCCCN)NC(=O)[C@H](CCC(N)=O)NC(=O)[C@@H](NC(=O)[C@@H](N)Cc2ccc(O)cc2)CSSC[C@@H]2NC(=O)[C@@H]3CSSC[C@@H](C(=O)N[C@@H](CCCCN)C(=O)N[C@@H](Cc4ccc(O)cc4)C(=O)N[C@@H](CC(N)=O)C(=O)N[C@@H](CC(C)C)C(N)=O)NC(=O)[C@H](Cc4c[nH]c5ccccc45)NC(=O)[C@H](CC(C)C)NC(=O)[C@H](CCC(=O)O)NC(=O)[C@H](CSSC[C@H](NC(=O)[C@H]([C@@H](C)O)NC(=O)[C@H](Cc4c[nH]c5ccccc45)NC1=O)C(=O)N[C@@H](CC(=O)O)C(=O)N[C@@H](CO)C(=O)N[C@@H](CCC(=O)O)C(=O)N[C@@H](CCCNC(=N)N)C(=O)N[C@@H](CCCCN)C(=O)N3)NC(=O)[C@H](C(C)C)NC(=O)[C@H](Cc1ccc(O)cc1)NC(=O)CNC(=O)[C@H](CCC(=O)O)NC2=O [compound 48]					Nav1.4/Nav1.7 (hNav1.4 [1]): 3; Nav1.5/Nav1.7 (hNav1.5): 61
C#CC[C@H](N)C(=O)NCCOCCOCCOCCOCCC(=O)NCCCC[C@@H]1NC(=O)[C@H](CCCNC(=N)N)NC(=O)[C@H](CCCCN)NC(=O)[C@H](CO)NC(=O)[C@H](CC(=O)O)NC(=O)[C@@H]2CSSC[C@@H]3NC(=O)[C@H](CCCNC(=N)N)NC(=O)[C@H](CC(C)C)NC(=O)CNC(=O)[C@H](CCC(=O)O)NC(=O)[C@H](CSSC[C@H](NC(=O)[C@H](Cc4ccc(O)cc4)NC(=O)[C@@H](N)CC#N)C(=O)N[C@@H](CCC(N)=O)C(=O)N[C@@H](CCCCN)C(=O)N[C@@H](Cc4c[nH]c5ccccc45)C(=O)N[C@@H](CCCC)C(=O)N[C@@H](Cc4c[nH]c5ccccc45)C(=O)N[C@@H]([C@@H](C)O)C(=O)N2)NC(=O)[C@H](CSSC[C@@H](C(=O)N[C@@H](CCCNC(=N)N)C(=O)N[C@@H](CCCCN)C(=O)N[C@H](C(=O)N[C@H](C(N)=O)[C@@H](C)CC)[C@@H](C)CC)NC(=O)[C@H](Cc2c[nH]c4ccccc24)NC(=O)[C@H](CC(C)C)NC(=O)[C@H](CCCCN)NC3=O)NC1=O [compound 380]					Nav1.4/Nav1.7 (hNav1.4 [1]; ratio of PX tonic IC50 values): 0; Nav1.5/Nav1.7 (hNav1.5; ratio of PX tonic IC50 values): 0
CCCC[C@@H]1NC(=O)[C@H](Cc2c[nH]c3ccccc23)NC(=O)[C@H](CCCCN)NC(=O)[C@H](CCC(N)=O)NC(=O)[C@@H](NC(=O)[C@H](Cc2ccc(O)cc2)NC(=O)[C@@H](N)CCC)CSSC[C@@H]2NC(=O)[C@@H]3CSSC[C@@H](C(=O)N[C@@H](CCCNC(=N)N)C(=O)N[C@@H](CCCCN)C(=O)N[C@H](C(=O)N[C@H](C(N)=O)[C@@H](C)CC)[C@@H](C)CC)NC(=O)[C@H](Cc4c[nH]c5ccccc45)NC(=O)[C@H](CC(C)C)NC(=O)[C@H](CCCCN)NC(=O)[C@H](CSSC[C@H](NC(=O)[C@H]([C@@H](C)O)NC(=O)[C@H](Cc4c[nH]c5ccccc45)NC1=O)C(=O)N[C@@H](CC(=O)O)C(=O)N[C@@H](CO)C(=O)N[C@@H](CCCCN)C(=O)N[C@@H](CCCNC(=N)N)C(=O)N[C@@H](C)C(=O)N3)NC(=O)[C@H](CCCNC(=N)N)NC(=O)[C@H](CC(C)C)NC(=O)CNC(=O)[C@H](CCC(=O)O)NC2=O [compound 369]					IC50 (hNav1.4 [1]; [3]): 11.6 nM; IC50 (hNav1.5; [3]): 490 nM

From US9636418B2 (priority 2013, dated 2017)
